Data set [1] in a line: Particle size and PDI of lipid nanoparticles by dynamic light scattering. The settings on record: lipid nanoparticle with the cationic lipid, cholesterol, DSPC, DMG-PEG2000 (50/38.5/10/1.5 mol%), luciferase mRNA, N/P 6. It counts as physicochemical. As for the experimental part:
(§1) Lipid nanoparticles were prepared by (1) dissolving and mixing ionizable lipid compounds, cholesterol, phospholipids and polyethylene glycolated lipids in ethanol at (molar percentages) 50%, 38.5%, 10% and 1.5%, respectively; (2) dissolving the mRNA active ingredient in 25 mM sodium acetate solution (pH=4.5); (3) using an automated high-throughput microfluidic system to mix the organic phase containing the lipid mixture and the aqueous phase containing the mRNA component in the flow ratio range of 1:1 to 1:4 at a mixing speed of 10 mL/min to 18 mL/min; (4) the prepared lipid nanoparticles (N/P ratio of 6) were diluted with phosphate buffer solution and the nanoparticle solutions were ultrafiltered to the original preparation volume using ultrafiltration tubes (purchased from Millipore) with a cut-off molecular weight of 30 kDa; and (5) the obtained nanoparticles were filtered through a sterile 0.2 μm filter membrane and then stored in a sealed glass vial at low temperature.
(§2) The particle size and particle size dispersity index (PDI) of the prepared lipid nanoparticles were measured using a Zetasizer Pro (purchased from Malvern Instruments Ltd) and a DynaPro NanoStar (purchased from Wyatt) dynamic light scattering instrument. The degree of RNA encapsulation by lipid nanoparticles was characterized by the Encapsulation Efficiency %, which reflects the degree of binding of lipid nanoparticles to RNA fragments. This parameter was measured by the method of Quant-It™ RiboGreen RNA Assay (purchased from Invitrogen). Lipid nanoparticle samples were diluted in TE buffer (10 mM Tris-HCl, 1 mM EDTA, pH=7.5). A portion of the sample solution was removed, to which 0.5% Triton (Triton X-100) was added, and then allowed to stand at 37° C. for 30 minutes. Immediately after the addition of RIBOGREEN® reaction solution, the fluorescence values were read on a Varioskan LUX multifunctional microplate reader (purchased from Thermofisher) at 485 nm for absorption and 528 nm for emission to give the encapsulation efficiency values.

Data set [2] can be described thus: Encapsulation efficiency of lipid nanoparticles, Quant-It RiboGreen RNA Assay. It counts as physicochemical. The settings on record: lipid nanoparticle with the cationic lipid, luciferase mRNA. As to the method: as §1, §2

Each structure is given as a SMILES string.

`CCCCCCCCCCOC(=O)C(C)(C)CCCCCC(CCCCCC(C)(C)C(=O)OCCCCCCCCCC)OC(=O)CCN(C)C` [Compound 1]: in data set [1], the “Particle size (nm)” value was determined as 80.07 nm and the “Particle size dispersity (PDI)” value came to 0.06. In data set [2], the “Encapsulation efficiency (%)” value amounted to 91.54%.
For `CCCCCCCCOC(=O)C(C)(C)CCCCCC(CCCCCC(C)(C)C(=O)OCCCCCCCC)OC(=O)CCN(C)C` [Compound 2] the same measures were 229.35 nm, 0.03 and 79.14%.
In the same order, the values of `CCCCCCCCCOC(=O)C(C)(C)CCCCCC(CCCCCC(C)(C)C(=O)OCCCCCCCCC)OC(=O)CCN(C)C` [Compound 3] are 133.80 nm, 0.04 and 86.88%.
In the same order, the values of `CC(C)CCCC(C)CCOC(=O)C(C)(C)CCCCCC(CCCCCC(C)(C)C(=O)OCCC(C)CCCC(C)C)OC(=O)CCN(C)C` (stereo not drawn) [Compound 6] are 106.18 nm, 0.05 and 90.26%.
On to `CC/C=C\CCCCCOC(=O)C(C)(C)CCCCCC(CCCCCC(C)(C)C(=O)OCCCCC/C=C\CC)OC(=O)CCN(C)C` [Compound 7], for which, in data set [1], the “Particle size (nm)” value is recorded as 203.67 nm and the “Particle size dispersity (PDI)” value stood at 0.04. For the same compound, the “Encapsulation efficiency (%)” value in data set [2] was 69.51%.
For `CCCCCCCCCCNC(=O)C(C)(C)CCCCCC(CCCCCC(C)(C)C(=O)NCCCCCCCCCC)OC(=O)CCN(C)C` [Compound 8], in data set [1], the “Particle size (nm)” value came to 127.82 nm and the “Particle size dispersity (PDI)” value was determined as 0.07. In addition, in data set [2], the “Encapsulation efficiency (%)” value is reported as 60.36%.
As to `CCCCCCCCCNC(=O)C(C)(C)CCCCCC(CCCCCC(C)(C)C(=O)NCCCCCCCCC)OC(=O)CCN(C)C` [Compound 9], in data set [1], the “Particle size (nm)” value is given as 352.82 nm and the “Particle size dispersity (PDI)” value was 0.07. In addition, the “Encapsulation efficiency (%)” value in data set [2] was determined as 19.41%.
Regarding `CCCCCCCCCCCCNC(=O)C(C)(C)CCCCCC(CCCCCC(C)(C)C(=O)NCCCCCCCCCCCC)OC(=O)CCN(C)C` [Compound 10], in data set [1], the “Particle size (nm)” value came out at 118.59 nm and the “Particle size dispersity (PDI)” value is reported as 0.07. In addition, the “Encapsulation efficiency (%)” value in data set [2] worked out at 53.83%.
For `CCCCCCCCC(CCCCCCCC)NC(=O)C(C)(C)CCCCCC(CCCCCC(C)(C)C(=O)NC(CCCCCCCC)CCCCCCCC)OC(=O)CCN(C)C` [Compound 11] the same measures were 46.49 nm, 0.03 and 95.61%.
For `CCCCCCCCCN(CCCCCCCCC)C(=O)C(C)(C)CCCCCC(CCCCCC(C)(C)C(=O)N(CCCCCCCCC)CCCCCCCCC)OC(=O)CCN(C)C` [Compound 12] the same measures were 89.34 nm, 0.07 and 85.02%.
As for `CCCCCCCCCCOC(=O)C(C)(C)CCCCCC(CCCCCC(C)(C)C(=O)OCCCCCCCCCC)OC(=O)CN(C)C` [Compound 17], in data set [1], the “Particle size (nm)” value is on record as 81.43 nm and the “Particle size dispersity (PDI)” value is reported as 0.12. Also, the “Encapsulation efficiency (%)” value in data set [2] worked out at 30.95%.
For the compound `CCCCCCCCCCOC(=O)C(C)(C)CCCCCC(CCCCCC(C)(C)C(=O)OCCCCCCCCCC)OC(=O)CCCN(C)C` [Compound 18], in data set [1], the “Particle size (nm)” value is given as 161.29 nm and the “Particle size dispersity (PDI)” value was 0.05. In data set [2], the “Encapsulation efficiency (%)” value amounted to 87.86%.
In the case of `CCCCCCCCOC(=O)C(C)(C)CCCCCC(CCCCCC(C)(C)C(=O)OCCCCCCCC)OC(=O)CCCN(C)C` [Compound 19], in data set [1], the “Particle size (nm)” value is reported as 135.15 nm and the “Particle size dispersity (PDI)” value turned out to be 0.19. Moreover, in data set [2], the “Encapsulation efficiency (%)” value amounted to 67.96%.
For the compound `CCCCCCCC#CCOC(=O)C(C)(C)CCCCCC(CCCCCC(C)(C)C(=O)OCC#CCCCCCCC)OC(=O)CCCN(C)C` [Compound 23], in data set [1], the “Particle size (nm)” value was 151.35 nm and the “Particle size dispersity (PDI)” value was 0.07. Also, the “Encapsulation efficiency (%)” value in data set [2] is listed as 70.22%.
For the compound `CCCCCCC#CCCOC(=O)C(C)(C)CCCCCC(CCCCCC(C)(C)C(=O)OCCC#CCCCCCC)OC(=O)CCCN(C)C` [Compound 24], in data set [1], the “Particle size (nm)” value stood at 133.72 nm and the “Particle size dispersity (PDI)” value is listed as 0.04. Also, in data set [2], the “Encapsulation efficiency (%)” value was 60.98%.
As for `CCCCC#CCCCCOC(=O)C(C)(C)CCCCCC(CCCCCC(C)(C)C(=O)OCCCCC#CCCCC)OC(=O)CCCN(C)C` [Compound 25], in data set [1], the “Particle size (nm)” value was determined as 236.90 nm and the “Particle size dispersity (PDI)” value worked out at 0.06. In data set [2], the “Encapsulation efficiency (%)” value worked out at 32.43%.
For `CCCCCCC/C=C\COC(=O)C(C)(C)CCCCCC(CCCCCC(C)(C)C(=O)OC/C=C\CCCCCCC)OC(=O)CCCN(C)C` [Compound 26] the same measures were 96.69 nm, 0.05 and 81.29%.
For `CCCCCC/C=C\CCOC(=O)C(C)(C)CCCCCC(CCCCCC(C)(C)C(=O)OCC/C=C\CCCCCC)OC(=O)CCCN(C)C` [Compound 27] the same measures were 105.70 nm, 0.05 and 88.99%.
Regarding `CCCCCCCCCCSC(=O)C(C)(C)CCCCCC(CCCCCC(C)(C)C(=O)SCCCCCCCCCC)OC(=O)CCN(C)C` [Compound 33], in data set [1], the “Particle size (nm)” value is 105.84 nm and the “Particle size dispersity (PDI)” value turned out to be 0.04. For the same compound, the “Encapsulation efficiency (%)” value in data set [2] is 88.67%.
For `CCCCCCCCCCSC(=O)C(C)(C)CCCCCC(CCCCCC(C)(C)C(=O)SCCCCCCCCCC)OC(=O)CCCN(C)C` [Compound 34] the same measures were 104.71 nm, 0.04 and 90.29%.
For `CCCCCCCCCCSC(=O)C(C)(C)CCCCCC(CCCCCC(C)(C)C(=O)SCCCCCCCCCC)OC(=O)CCCCCN(C)C` [Compound 36] the same measures were 88.33 nm, 0.07 and 97.52%.
For `CCCCCCCCCCSC(=O)C(C)(C)CCCCCC(CCCCCC(C)(C)C(=O)OCCCCCCCCC)OC(=O)CCCN(C)C` (stereo not drawn) [Compound 40] the same measures were 83.90 nm, 0.05 and 97.06%.
`CCCCCCC#CCOC(=O)C(C)(C)CCCCCC(CCCCCC(C)(C)C(=O)OCCCCCCCCC)OC(=O)CCCN(C)C` (stereo not drawn) [Compound 42]: in data set [1], the “Particle size (nm)” value was found to be 152.04 nm and the “Particle size dispersity (PDI)” value was 0.07. The “Encapsulation efficiency (%)” value in data set [2] was 71.95%.
As for `CCCCCCCCCCOC(=O)C(C)(C)CCCCCC(CCCCCC(C)(C)C(=O)OCCCCCCCCCC)OC(=O)CCN1CCOCC1` [Compound 90], in data set [1], the “Particle size (nm)” value was 18.17 nm and the “Particle size dispersity (PDI)” value came out at 0.05. Moreover, the “Encapsulation efficiency (%)” value in data set [2] was determined as 83.21%.
For `CCCCCCCCCCOC(=O)C(C)(C)CCCCCC(CCCCCC(C)(C)C(=O)OCCCCCCCCCC)OC(=O)CN1CCOCC1` [Compound 91] the same measures were 32.61 nm, 0.05 and 102.99%.
For `CCCCCCCCCCOC(=O)C(C)(C)CCCCCC(CCCCCC(C)(C)C(=O)OCCCCCCCCCC)OC(=O)CCN1CCCC1` [Compound 92] the same measures were 107.56 nm, 0.05 and 91.66%.
For `CCCCCCC/C=C\COC(=O)CC(C)(C)CCCCC(CCCCC(C)(C)CC(=O)OCC(CCCCC)CCCCCCC)OC(=O)CCCN(C)C` (stereo not drawn) [Compound 98] the same measures were 107.87 nm, 0.13 and 93.28%.
As to `CCCCCCCCOC(=O)C(C)(C)CCCCCC(CCCCCC(C)(C)C(=O)OCCCCCCCC)OC(=O)C1CCN(C(C)C)CC1` [Compound 101], in data set [1], the “Particle size (nm)” value was determined as 152.45 nm and the “Particle size dispersity (PDI)” value was 0.06. The “Encapsulation efficiency (%)” value in data set [2] is given as 76.09%.
For `CCCCCCCCCOC(=O)C(C)(C)CCCCCC(CCCCCC(C)(C)C(=O)OCCCCCCCCC)OC(=O)C1CCN(C)CC1` [Compound 102], in data set [1], the “Particle size (nm)” value came out at 102.18 nm and the “Particle size dispersity (PDI)” value is 0.03. The “Encapsulation efficiency (%)” value in data set [2] came to 90.03%.
For `CCCCCCCCCOC(=O)C(C)(C)CCCCCC(CCCCCC(C)(C)C(=O)OCCCCCCCCC)OC(=O)C1CCN(C(C)C)CC1` [Compound 103] the same measures were 148.67 nm, 0.04 and 90.97%.

The values above are taken from patent publication US12162819B2, “Ionizable lipid compounds” (Beijing Jitai Pharmaceutical Technology Co., Ltd., priority 2022, dated 2024).
